In patent US5849753A, “Pyridyl imidazole derivatives and processes for the preparation thereof” (Korea Research Institute of Chemical Technology, priority 1994, dated 1998):

Assays:
[1] = tested on: renal hypertensive rat; test: Blood pressure lowering effect in renal hypertension (renal hypertensive rats, intravenous or oral); format: in vivo, male Sprague-Dawley rats; conditions: 3 mg, read-out: Maxium Blood Pressure Lowering Effect(%)
Text: To induce renal hypertension, left renal artery of 4 week-old male Sprague-Dawley rats(from The Korea Research Institute of Chemical Technology) was ligated. The rats were anesthetized with ether and the surgical region on the left abdomen of the rat was shaved, disinfected, and then incised about 1 cm vertically. The renal artery near abdominal aorta was isolated carefully from surrounding tissues and veins, and then ligated completely with a suture(4/0 sterile surgical silk). The muscular strata and skin of the surgical area were sutured with a suture(4/0 sterile surgical silk). The surgical region was disinfected to prevent infection and thereafter, 200 to 250 mg/Kg/day of cephazolin sodium was injected intramuscularly for 2 days. 6 to 8 days after the ligation, rats showing systolic pressure of more than 180 mmHg were selected for renal hypertension test. The blood pressure was determined by a tail-cuff method from the tail under unanesthetized condition(Gerold, M. et al., Arzneimittrel-Forsch, 18, 1285(1968)).
Each of the compounds to be tested was administered intravenously or orally into the renal hypertensive rat. The blood pressure of the rats was determined by direct method(Chiu, A. T. et al., J. Pharmacol. Exp. Ther. 250, 867(1989)) using a catheter. The rats were anesthetized with ketamine hydrochloride(125 mg/kg, i.p.) and a catheter was filled with saline and inserted into a carotid artery and carotid vein. The surgical area was sutured with a metal clip. The rats were relaxed at least 3 hours and the catheter in the carotid artery was adapted to an isotec pressure transducer to determine their blood pressure and heart rate with a physiograph(Linearcorder WR3310). After the blood pressure was stabilized, the test compound was administered intravenously or orally. For intravenous administration, the administered volume and washing volume were 1.0 ml/Kg and 0.2 ml, respectively. The blood pressure and heart rate were measured in regular intervals up to 24 hours after the administration of the test compound and compared with those measured after the administration of the control compound Losartan.
The test compound was dissolved in 0.05N KOH for intravenous administration and suspended in Tween 80 for oral administration.

[2] = tested on: angiotensin II receptor; test: Angiotensin II Receptor Binding Assay ([3H] angiotensin II binding inhibition); conditions: [3H] angiotensin II ligand; 60 minutes, 25° C.; test concentration not given
Method: In accordance with the procedure disclosed in Chiu, A. T. et al., Eur. J. Pharm., 157, 13(1981), a ligand marked with a radioisotope was reacted with an angiotensin II receptor and the reactant was filtered with a glass fiber to remove unreacted ligand. After washing the filter, the amount of the remaining isotope was measured to determine the binding activity of the ligand, as described below in detail.
Sprague-Dawley rats and Wistar rats of 250 to 350 g(from The Korea Research Institute of Chemical Technology) were tested and the test procedures were carried out at 4° C., unless otherwise specified. Adrenal gland was separated from the Sprague-Dawley rats(liver, in the case of Wistar rats) into cortex and medulla. The separated adrenal cortex and medulla were washed with a sucrose buffer solution (0.2M sucrose, 1 mM EDTA, 10 mM Tris, pH 7.2) and homogenized in the same buffer solution by using a Teflon pestle and a Brinkmann homogenizer. The homogenates were centrifuged at 3,000 Xg for 10 minutes to remove precipitates and further centrifuged at 12,000 Xg for 13 minutes. The final supernatants were centrifuged at 102,000 Xg for 1 hour to obtain precipitates, which were washed with a Tris buffer solution(50 mM Tris, 5 mM MgCl2, pH 7.2) and re-centrifuged at 102,000 Xg for 1 hour. The resulting precipitates were immediately processed at the following step or stored at -70° C.
The precipitates were suspended in a Tris buffer solution. The amount of protein was determined by using a Bio-Rad DC protein analyzing kit and the protein concentration was adjusted to the amounts of: 0.2 to 0.3 mg/ml(Sprague-Dawley rat: adrenal cortex), 1.5 to 2.0 mg/ml(Sprague-Dawleyrat: adrenal medulla), and 1.5 to 2.0 mg/ml(Wistar rat: liver). To the suspension, bovine serum albumin(BSA) was added to a concentration of 0.25 wt % and the resultant was immediately processed at the following step or stored at -70° C.
(ii) Measurement of angiotensin II receptor binding capacity 50 μl(based on ligand) of [^3 H] angiotensin II(NEN, NET-446) and 10 μl of each of the test compounds with various concentrations were added to the buffer solution(50 mM Irris(pH 7.2), 5 mM MgCl2, 0.25% BSA) to adjust the final volume to be 0.5 ml. 100 μl of the receptor suspension was added thereto and the resulting solution was reacted for 60 minutes while stirring in a water bath at 25° C. 3 ml of cold buffer solution for analysis was added to cease the reaction. The isotope which was bound to the receptor was isolated from the resultant by using Brandel Cell Harvester System with Whatman glass fiber GF/C. After washing the filter, the radioactivity of the filter was determined by using a liquid scintillation counter. Binding inhibition(%) of the test compound was calculated as follows:
Binding Inhibition(%)=[{(T--B)-(S--B)}/(T--B)]×100
wherein T is cpm of the reaction product untreated with the test compound, S is cpm of the reaction product treated with the test compound, and B is cpm of blank test.

Row | Compound | Binding Inhibition(%) [2] [%] | change in vivo at 3 mg [1] [%]
1 | CCCCc1nc2cc(-c3ccccc3)c(C(OCC)OCC)nc2n1Cc1ccc(-c2ccccc2-c2nnn[nH]2)cc1 [Example 2, 2-butyl-5-diethoxymethyl-6-phenyl-3-[2'-(1H-tetrazol-5-yl)-biphenyl-4-ylmethyl]-3H-imidazo[4,5-b]pyridine] | – | -45
2 | CCc1nc2c(C)cc(C(OC)OC)nc2n1Cc1ccc(-c2ccccc2-c2nnn[nH]2)cc1 [Example 12, 2-ethyl-5-dimethoxymethyl-7-methyl-3-[2'-(1H-tetrazol-5-yl)-biphenyl-4-ylmethyl]-3H-imidazo[4,5-b]pyridine] | 44.5 | –
3 | CCCCc1nc2cc(-c3ccccc3)c(C3OCCO3)nc2n1Cc1ccc(-c2ccccc2-c2nnn[nH]2)cc1 [Example 3, 2-butyl-5-(1,3-dioxolan-2-yl)-6-phenyl-3-[2'-(1H-tetrazol-5-yl)-biphenyl-4-ylmethyl]-3H-imidazo[4,5-b]pyridine] | 70.6 | -27
4 | CCCCc1nc2cc(-c3ccccc3)c(C3OCCCO3)nc2n1Cc1ccc(-c2ccccc2-c2nn[nH]n2)cc1 [Example 4, 2-butyl-5-(1,3-dioxan-2-yl)-6-phenyl-3-[2'-(1-tetrazol-5-yl)-biphenyl-4-ylmethyl]-3H-imidazo[4,5-b]pyridine] | 60.9 | -33
5 | CCCCc1nc2ccc(C(OC)OC)nc2n1Cc1ccc(-c2ccccc2-c2nnn[nH]2)cc1 [Example 10, 2-butyl-5-dimethoxymethyl-3-[2'-(1H-tetrazol-5-yl)-biphenyl-4-ylmethyl]-3H-imidazo[4,5-b]pyridine] | 83.6 | –
6 | CCCCc1nc2c(C)cc(C(OC)OC)nc2n1Cc1ccc(-c2ccccc2-c2nnn[nH]2)cc1 [Example 11, 2-butyl-5-dimethoxymethyl-7-methyl-3-[2'-(1H-tetrazol-5-yl)-biphenyl-4-ylmethyl]-3H-imidazo[4,5-b]pyridine] | 52.5 | –
7 | CCCCc1nc2cc(-c3ccccc3)c(C3SCCS3)nc2n1Cc1ccc(-c2ccccc2-c2nnn[nH]2)cc1 [Example 5, 2-butyl-5-(1,3-dithiolan-2-yl)-6-phenyl-3-[2'-(1H-tetrazol-5-yl)-biphenyl-4-ylmethyl]-3H-imidazo[4,5-b]pyridine] | 54.1 | –
8 | CCCCc1nc2cc(Br)c(C(OC)OC)nc2n1Cc1ccc(-c2ccccc2-c2nnn[nH]2)cc1 [Example 7, 2-butyl-5-dimethoxymethyl-6-bromo-3-[2'-(1H-tetrazol-5-yl)-biphenyl-4-ylmethyl]-3H-imidazo[4,5-b]pyridine] | 78.1 | –

Continued, in another order:

Row | Binding Inhibition(%) [2] [%] | Compound | change in vivo at 3 mg [1] [%]
9 | 92.2 | CCCCc1nc2cc(-c3cccc[n+]3[O-])c(C(OC)OC)nc2n1Cc1ccc(-c2ccccc2-c2nn[nH]n2)cc1 [Example 21, 2-butyl-5-dimethoxymethyl-6-(1-oxy-pyridin-2-yl)-3-[2'-(1H-tetrazol-5-yl)-biphenyl-4-ylmethyl]-3H-imidazo[4,5-b]pyridine] | -20
10 | 82.0 | CCCCc1nc2cc(CCc3ccccc3)c(C(OC)OC)nc2n1Cc1ccc(-c2ccccc2-c2nn[nH]n2)cc1 [Example 15, 2-butyl-5-dimethoxymethyl-6-(2-phenylethyl-1-yl)-3-[2'-(1H-tetrazol-5-yl)-biphenyl-4-ylmethyl]-3H-imidazo[4,5-b]pyridine] | -36
11 | 70.9 | CCCCc1nc2cc(-c3ccccc3[N+](=O)[O-])c(C(OC)OC)nc2n1Cc1ccc(-c2ccccc2-c2nn[nH]n2)cc1 [Example 19, 2-butyl-5-dimethoxymethyl-6-(2-nitrophenyl-1-yl)-3-[2'-(1H-tetrazol-5-yl)-biphenyl-4-ylmethyl]-3H-imidazo[4,5-b]pyridine] | -29
12 | 89.4 | CCCCc1nc2cc(-c3ccc(CO)cc3)c(C(OC)OC)nc2n1Cc1ccc(-c2ccccc2-c2nn[nH]n2)cc1 [Example 18, 2-butyl-5-dimethoxymethyl-6-(4-hydroxymethylphenyl-1-yl)-3-[2'-(1H-tetrazol-5-yl)-biphenyl-4-ylmethyl]-3H-imidazo[4,5-b]pyridine] | -33
13 | 87.8 | CCCCc1nc2cc(Cc3ccccc3)c(C(OC)OC)nc2n1Cc1ccc(-c2ccccc2-c2nnn[nH]2)cc1 [Example 27, 2-butyl-5-dimethoxymethyl-6-benzyl-3-[2'-(1H-tetrazol-5-yl)-biphenyl-4-ylmethyl]-3H-imidazo[4,5-b]pyridine] | –
14 | 68.5 | CCCCc1nc2cc(-c3ccc(C)cc3)c(C(OC)OC)nc2n1Cc1ccc(-c2ccccc2-c2nn[nH]n2)cc1 [Example 16, 2-butyl-5-dimethoxymethyl-6-(4-methylphenyl-1-yl)-3-[2'-(1H-tetrazol-5-yl)-biphenyl-4-ylmethyl]-3H-imidazo[4,5-b]pyridine] | –
15 | 97.0 | CCCCc1nc2cc(-c3cc[n+]([O-])cc3)c(C(OC)OC)nc2n1Cc1ccc(-c2ccccc2-c2nn[nH]n2)cc1 [Example 25, 2-butyl-5-dimethoxymethyl-6-(1-oxy-pyridin-4-yl)-3-[2'-(1H-tetrazol-5-yl)-biphenyl-4-ylmethyl)-3H-imidazo[4,5-b]pyridine] | -29
16 | 72.0 | CCCCc1nc2cc(-c3cccs3)c(C(OC)OC)nc2n1Cc1ccc(-c2ccccc2-c2nnn[nH]2)cc1 [Example 14, 2-butyl-5-dimethoxymethyl-6-(thiophen-2-yl)-3-[2'-(1H-tetrazol-5-yl)-biphenyl-4-ylmethyl]-3H-imidazo[4,5-b]pyridine] | –
17 | 82.0 | CCCCc1nc2cc(-c3ccc(COCc4ccccc4)cc3)c(C(OC)OC)nc2n1Cc1ccc(-c2ccccc2-c2nn[nH]n2)cc1 [Example 17, 2-butyl-5-dimethoxymethyl-6-[4-(benzyloxymethyl)-phenyl-1-yl]-3-[2'-(1H-tetrazol-5-yl)-biphenyl-4-ylmethyl]-3H-imidazo[4,5-b]pyridine] | –
18 | 45.2 | CCCCc1nc2cc(-c3ccc(F)cc3)c(C(OC)OC)nc2n1Cc1ccc(-c2ccccc2-c2nn[nH]n2)cc1 [Example 9, 2-butyl-5-dimethoxymethyl-6-(4-fluorophenyl-1-yl)-3-[2'-(1H-tetrazol-5-yl)-biphenyl-4-ylmethyl]-3H-imidazo[4,5-b]pyridine] | –
19 | 89.2 | CCCCc1nc2cc(-c3ccccc3N)c(C(OC)OC)nc2n1Cc1ccc(-c2ccccc2-c2nn[nH]n2)cc1 [Example 26, 2-butyl-5-dimethoxymethyl-6-(2-aminophenyl-1-yl)-3-[2'-(1H-tetrazol-5-yl)-biphenyl-4-ylmethyl]-3H-imidazo[4,5-b]pyridine] | –
